Molecules are shown by their SMILES.

For data set [1], the target named is 5-hydroxytryptamine receptor 6 (Homo sapiens, UniProt P50406). Briefly: Antagonist activity at 5-HT6 receptor (unknown origin).
Data set [2] concerns Chikungunya virus. The data set is described as follows: Antiviral activity against CHIKV. Type of data set: functional, organism-based.
The target in data set [3] is Carbonic anhydrase 2 (Homo sapiens, UniProt P00918). Briefly: Inhibition of human carbonic anhydrase 2.
Data set [4] has as its target T1, Prostaglandin G/H synthase 2 (Rattus norvegicus, UniProt P35355).
T1 sequence (P35355 whole entry): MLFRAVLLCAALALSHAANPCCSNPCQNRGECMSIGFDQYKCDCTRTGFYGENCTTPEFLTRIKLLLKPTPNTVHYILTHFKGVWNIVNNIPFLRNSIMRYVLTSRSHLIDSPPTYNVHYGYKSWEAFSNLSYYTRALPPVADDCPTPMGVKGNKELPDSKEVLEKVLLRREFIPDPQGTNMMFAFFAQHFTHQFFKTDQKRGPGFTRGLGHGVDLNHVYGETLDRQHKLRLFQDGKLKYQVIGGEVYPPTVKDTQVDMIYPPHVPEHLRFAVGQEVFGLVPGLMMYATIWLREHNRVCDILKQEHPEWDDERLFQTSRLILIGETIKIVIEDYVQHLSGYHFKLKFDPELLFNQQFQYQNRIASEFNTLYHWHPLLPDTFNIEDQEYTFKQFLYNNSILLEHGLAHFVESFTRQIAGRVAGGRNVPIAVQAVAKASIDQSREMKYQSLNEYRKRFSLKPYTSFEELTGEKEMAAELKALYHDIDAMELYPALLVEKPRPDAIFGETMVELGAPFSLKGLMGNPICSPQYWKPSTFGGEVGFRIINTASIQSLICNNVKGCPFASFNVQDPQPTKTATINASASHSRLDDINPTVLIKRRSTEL
Briefly: Inhibition of COX2 isolated from rat seminal vesicles assessed as reduction of PGG2 to PGH2 using arachidonic acid substrate preincubated for 15 mins followed by substrate addition.

The target of data set [5] is Carbonic anhydrase 4 (Homo sapiens, UniProt P22748). Briefly: Inhibition of human carbonic anhydrase 4.
Carbonic anhydrase 4, sequence (P22748 whole entry): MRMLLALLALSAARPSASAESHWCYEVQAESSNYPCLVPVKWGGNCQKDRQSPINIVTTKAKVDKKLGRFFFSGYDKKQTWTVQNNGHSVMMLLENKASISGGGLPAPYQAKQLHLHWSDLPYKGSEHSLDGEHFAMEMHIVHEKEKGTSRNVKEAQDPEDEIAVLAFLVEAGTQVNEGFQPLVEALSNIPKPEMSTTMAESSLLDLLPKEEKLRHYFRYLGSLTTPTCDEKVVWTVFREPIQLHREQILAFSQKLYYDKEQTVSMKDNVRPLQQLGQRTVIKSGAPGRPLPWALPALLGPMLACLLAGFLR
Data set [6] is described as follows: Half life in rat. Type of data set: ADME. As to conditions: in vivo.
Data set [7] is described as follows: Inhibition of HIV protease. Also noted: species or system Human immunodeficiency virus.
The target of data set [8] is T2, Cannabinoid receptor 1 (Homo sapiens, UniProt P21554). Briefly: Antagonist activity at human cannabinoid CB1 receptor.
T2 sequence (P21554 whole entry): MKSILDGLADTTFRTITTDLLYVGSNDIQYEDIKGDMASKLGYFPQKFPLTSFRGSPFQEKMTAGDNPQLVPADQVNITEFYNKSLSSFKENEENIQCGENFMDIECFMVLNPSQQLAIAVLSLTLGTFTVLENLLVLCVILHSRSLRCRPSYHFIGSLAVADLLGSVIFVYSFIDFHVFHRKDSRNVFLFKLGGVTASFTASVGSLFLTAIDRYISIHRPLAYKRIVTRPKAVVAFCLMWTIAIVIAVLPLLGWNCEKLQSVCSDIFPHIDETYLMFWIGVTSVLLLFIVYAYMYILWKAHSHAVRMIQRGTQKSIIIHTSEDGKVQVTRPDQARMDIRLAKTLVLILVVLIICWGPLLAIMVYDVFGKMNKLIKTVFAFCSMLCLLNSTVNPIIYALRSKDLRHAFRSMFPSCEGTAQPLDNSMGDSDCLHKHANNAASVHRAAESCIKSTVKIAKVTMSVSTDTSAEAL
Data set [9] concerns the target T2, Cannabinoid receptor 1. The data set is described as follows: Antagonist activity at cannabinoid CB1 receptor (unknown origin).
The target in data set [10] is Cannabinoid receptor 2 (Homo sapiens, UniProt P34972). The data set is described as follows: Antagonist activity at human cannabinoid CB2 receptor.
Cannabinoid receptor 2, sequence (P34972 whole entry): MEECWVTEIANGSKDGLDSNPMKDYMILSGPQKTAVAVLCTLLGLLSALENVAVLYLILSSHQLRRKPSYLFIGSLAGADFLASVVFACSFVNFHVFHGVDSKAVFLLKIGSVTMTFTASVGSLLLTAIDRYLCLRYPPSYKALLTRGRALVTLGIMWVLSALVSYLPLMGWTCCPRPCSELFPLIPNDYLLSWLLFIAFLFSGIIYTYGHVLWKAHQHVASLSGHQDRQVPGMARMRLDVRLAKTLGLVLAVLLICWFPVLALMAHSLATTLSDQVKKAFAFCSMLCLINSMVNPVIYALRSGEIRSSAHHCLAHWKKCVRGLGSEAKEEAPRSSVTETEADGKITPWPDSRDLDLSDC
The subject of data set [11] is Leishmania infantum. Briefly: Antileishmanial activity against Leishmania infantum. The format is functional, organism-based.
Data set [12] deals with Leishmania amazonensis. The data set is described as follows: Antileishmanial activity against Leishmania amazonensis. Type of data set: functional, organism-based.
The test system of data set [13] is Trypanosoma cruzi. The data set is described as follows: Antitrypanosomal activity against Trypanosoma cruzi. Type of data set: functional, organism-based.
Data set [14] in a line: Antagonist activity at cannabinoid receptor (unknown origin). Also noted: species or system Homo sapiens.
A short description of data set [15]: Inhibition of rat 5'-nucleotidase.
Data set [16] is described as follows: Inhibition of HIV integrase. Also noted: species or system Human immunodeficiency virus.
A short description of data set [17]: Inhibition of HIV RT. Also noted: species or system Human immunodeficiency virus.
The test system of data set [18] is Human immunodeficiency virus 1. Briefly: Antiviral activity against HIV1. Type of data set: functional, organism-based.
Data set [19] relates to THP-1. The data set is described as follows: Cytotoxicity against human THP1 cells assessed as reduction in cell viability. Type of data set: functional, cell-based.
For data set [20], the target named is Carbonic anhydrase 1 (Homo sapiens, UniProt P00915). The data set is described as follows: Inhibition of human carbonic anhydrase 1.
Carbonic anhydrase 1, sequence (P00915 whole entry): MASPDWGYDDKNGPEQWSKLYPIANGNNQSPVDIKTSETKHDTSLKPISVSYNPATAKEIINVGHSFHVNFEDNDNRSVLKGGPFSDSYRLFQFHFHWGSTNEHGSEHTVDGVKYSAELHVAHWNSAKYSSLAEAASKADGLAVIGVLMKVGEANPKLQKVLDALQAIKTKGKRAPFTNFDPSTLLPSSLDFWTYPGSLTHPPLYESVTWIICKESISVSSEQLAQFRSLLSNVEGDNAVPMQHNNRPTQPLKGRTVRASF

5-hydroxytryptamine receptor 6, sequence (P50406 whole entry): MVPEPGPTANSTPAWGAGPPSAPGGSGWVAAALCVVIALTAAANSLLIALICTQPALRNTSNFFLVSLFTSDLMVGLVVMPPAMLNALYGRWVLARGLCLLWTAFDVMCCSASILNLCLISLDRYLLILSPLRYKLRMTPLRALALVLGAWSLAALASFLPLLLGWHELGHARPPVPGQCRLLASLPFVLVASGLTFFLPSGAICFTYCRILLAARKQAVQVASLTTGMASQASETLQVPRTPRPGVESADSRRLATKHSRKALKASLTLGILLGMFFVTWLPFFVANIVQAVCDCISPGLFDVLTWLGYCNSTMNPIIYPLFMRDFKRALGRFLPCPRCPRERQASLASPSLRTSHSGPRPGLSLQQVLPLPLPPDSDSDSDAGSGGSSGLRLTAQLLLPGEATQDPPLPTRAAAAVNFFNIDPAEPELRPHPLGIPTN

In data set [1], `CC(C)c1ccc(S(=O)(=O)Nc2ccc3nc(N4CCN(C)CC4)sc3c2)cc1` registered an IC50 of 14000 nM. In data set [2], `CCn1cnc2c(Oc3ccc(/C=C/C(=O)c4ccc(NS(=O)(=O)c5ccccc5C)cc4)cc3)ncnc21` had an EC50 of 51.6 µg/mL. With `CCCC(=O)/C(=N/Nc1cccc(-n2nc(C(=O)Nc3nnc(S(N)(=O)=O)s3)c(C(=O)Nc3nnc(S(N)(=O)=O)s3)c2-c2ccccc2)c1)C(=O)OCC`, in [3], the Ki turned out to be 884 nM. Turning to `O=c1ccnc(SCc2cc(=O)oc3cc(OS(=O)(=O)c4ccccc4[N+](=O)[O-])ccc23)[nH]1`, the EC50 in data set [2] came to 13000 nM. As for `Cc1ccc(S(=O)(=O)Oc2ccc3c(CSc4nc5ccccc5c(=O)[nH]4)cc(=O)oc3c2)cc1`, the EC50 in [2] came out at 10200 nM.

`O=C(CNC(=O)c1cccc(S(=O)(=O)Nc2ccccc2Cl)c1)N/N=C/c1ccc(C(F)(F)F)cc1`: the IC50 in data set [4] was 8900 nM. In turn, `CC(=O)N1CCc2ccc(NS(=O)(=O)c3c(Cl)nc4n3CCS4)cc21` displayed a Ki in [1] of 5.4 nM.

Take `O=S(=O)(Nc1ccc2sc(N3CCNCC3)nc2c1)c1cccc2ccccc12`: in [1], the Ki came to 500 nM. For the compound `C/C(=N\NC(=O)CNC(=O)c1cccc(S(=O)(=O)Nc2ccccc2Cl)c1)c1ccc(F)cc1`, the IC50 in data set [4] worked out at 8400 nM.

Take `COc1ccc(C2=NN(C(C)=O)C(c3ccc(OS(N)(=O)=O)cc3)C2)cc1` (configuration not stated): the IC50 in [3] stood at 0.4 nM; in data set [5] it was 20.5 nM. The compound `N#Cc1ccc(S(=O)(=O)Nc2cccc(C(c3c(O)c4c(oc3=O)CCCCCC4)C3CC3)c2)cc1` (configuration not stated) had an IC50 in data set [2] of 1.5 nM. The half-life in data set [6] is 6 h. Besides, in [7], the inhibitory constant (Ki) was 0.8 nM.

For the compound `O=C(NN1CCCCC1)c1cn(-c2ccc(Cl)cc2Cl)c(-c2ccc(C#Cc3ccc(C(F)(F)F)cc3)s2)c1CNS(=O)(=O)N1CCCC1`, the Ki in [8] stood at 0.3 nM; in data set [10], 21 nM. In [9], the half-maximal effective concentration (EC50) worked out at 3 nM. In data set [8], `Cc1cc(S(=O)(=O)N2CCc3c(nc(C(C)(C)C)n3CC3CC3)C2)no1` yielded an EC50 of 5.1 nM. With `O=S(=O)(Nc1cccc2cnccc12)c1ccc2ccccc2c1`, the figures for the IC50 in [11], in [12] and in [13] were 23000 nM, 42900 nM and 224000 nM, respectively. `O=S(=O)(NCc1ccc(-c2ccc(F)cc2F)cn1)c1cc2cc(Cl)ccc2[nH]1` yielded an IC50 in [14] of 3 nM. In [15], `COc1ccc(/C=C/C(=O)/C(=N/Nc2ccc(S(N)(=O)=O)cc2)N2CCOCC2)cc1` yielded an IC50 of 330 nM.

In turn, `Cc1cc(S(=O)(=O)N2CCc3c(nc(CC(C)(C)C)n3CC3CC3)C2)no1` yielded a concentration for a half-maximal effect (EC50) in data set [8] of 7 nM. `COc1cc(/C=C2\C=C(c3ccc(Cl)cc3)N(c3ccc(S(N)(=O)=O)cc3)C2=O)cc(OC)c1OC`: the IC50 in [4] is 420 nM.

`O=S(=O)(Nc1ccc2[nH]ccc2c1)c1c(Cl)nc2n1CCS2` yielded a Ki in [1] of 16.9 nM.

Turning to `NS(=O)(=O)c1ccc(N2C(=O)/C(=C/c3ccc(C(F)(F)F)cc3)C=C2c2ccc(Cl)cc2)cc1`, the IC50 in data set [4] was determined as 620 nM. For `CN1CCN(c2nc3cc(NS(=O)(=O)c4cccc5ccccc45)ccc3s2)CC1`, the IC50 in data set [1] was determined as 3900 nM.

Compound `NS(=O)(=O)c1ccc(N2C(=O)CC/C2=C\C(=O)c2cccc(F)c2)cc1` yielded a half-inhibitory concentration (IC50) in data set [3] of 0.46 nM. Turning to `CN(C)c1cccnc1N1CCN(C(=O)c2cc3cc(NS(C)(=O)=O)ccc3[nH]2)CC1`, the values for the concentration for half-maximal inhibition (IC50) in [16], in data set [17] and in data set [18] were 36 nM, more than 100000 nM and 21 nM, respectively. `NS(=O)(=O)c1ccc(N2C(=O)CC/C2=C\C(=O)c2ccc([N+](=O)[O-])cc2Cl)cc1` displayed an IC50 in data set [3] of 0.46 nM. `O=S(=O)(Cl)c1c(Cl)nc2n1CCS2`: the Ki in data set [1] was 8.4 nM.

`O=S(=O)(Nc1ccc([Se][Se]c2ccc(NS(=O)(=O)c3ccc(F)cc3)cc2)cc1)c1ccc(F)cc1`: the IC50 in data set [19] was 2800 nM. Compound `CCOc1ccc(-c2ccc(CNS(=O)(=O)c3cc4cc(Cl)ccc4[nH]3)cc2)cn1` displayed an IC50 in data set [14] of 4 nM.

Turning to `CC(=O)/C(=N\Nc1cccc(-n2nc(C(=O)Nc3nnc(S(N)(=O)=O)s3)c(C(=O)Nc3nnc(S(N)(=O)=O)s3)c2-c2ccccc2)c1)C(=O)c1ccccc1`, in [20], the Ki turned out to be 119 nM.

A word on the IC50: it is the point on the concentration scale where inhibition reaches its midpoint. As usually defined, the EC50 is the concentration that produces a half-maximal response. Low values mean greater potency, high ones weaker potency. By Ki is commonly meant a measure of affinity in units of concentration, obtained from inhibition or displacement. Read a high Ki as weaker binding. As a reminder, the half-life is the time needed for the level to fall by half in the phase considered. Low values mean rapid decline, high ones slow decline.
